In patent publication US20200290950A1, “ALKAMIDE COMPOUNDS AND USES THEREOF” (NORTH CAROLINA STATE UNIVERSITY, priority 2017, published 2020):

What was measured:
RBL-2H3 cells [1] = assay: β-hexosaminidase degranulation assay, RBL-2H3 cells (Example 1); type: cell-based, rat
Procedure: FIGS. 1A-1F. A15 inhibits BMMC and RBL-2H3 cell degranulation. The structure of alkamide A15 is shown with different functional groups and carbons in the fatty acid chain labeled (FIG. 1A). BMMCs were plated and stimulated 4 hrs later with 1 μM A23187 and the indicated concentrations of A15 or vehicle only. The percent degranulation was measured after 1 hr (FIG. 1B). RBL-2H3 cells were treated with A23187 and the percent degranulation was determined 1 hr later (FIG. 1C) or every 10 min over a 1 hr time course (FIG. 1D). RBL-2H3 cells were plated and incubated for 4 hrs before the media was aspirated and replaced with media containing 1 μg/mL IgE anti-DNP. Cells were incubated overnight and washed prior to stimulation. […] RBL-2H3 cells were stimulated for 1 hr in Tyrode's buffer before supernatants were collected and levels of histamine were measured using a competitive inhibition EIA kit (FIG. 1F). […]
FIGS. 5A-5D. […] Percent degranulation was measured 1 hr after stimulation with 1 μM A23187 in combination with vehicle only or 25 μg/mL of the indicated E. purpurea samples. […] RBL-2H3 cells were loaded with fluo-4 AM using the Fluo-4 AM Direct™ Calcium Assay Kit and fluorescence was measured on a microplate reader. […]
RBL-2H3 cell and BMMC degranulation was measured using a β-hexosaminidase (β-hex) activity assay. […] Absorbance was read at 405 nm on a BioTek Synergy HT microplate reader. […]

RBL-2H3 cells [2] = assay: TNF-α production, ELISA, 8 hrs (Example 1); type: cell-based, rat; conditions: 1 μM A23187, all doses tested
Procedure: FIGS. 6A-6B. A15 inhibits de novo production of TNF-α and PGE2 from RBL-2H3 cells. RBL-2H3 cells were plated and incubated overnight prior to stimulation. Cells were stimulated with 1 μM A23187 in combination with the indicated doses of A15. Supernatants were collected 8 hrs later and TNF-α (FIG. 6A) or PGE2 (FIG. 6B) levels were measured using ELISA kits. Data shown are the means±SEM from 3 independent experiments. Statistical analysis was performed using a one-way ANOVA with Dunnett's post-hoc test, *p<0.05, **p<0.01, ***p<0.001.
Bone marrow cells were isolated from the femurs of 6-8 week old C57BL/6 mice and cultured in RPMI-1640 containing 10% heat-inactivated FBS, non-essential amino acids, HEPES buffer, sodium pyruvate, 100 U/mL penicillin, 100 μg/mL streptomycin, 5 ng/mL mIL-3, and 5 ng/mL mSCF for 4-6 weeks until mature, bone marrow-derived mast cells (BMMCs) were obtained, as described previously (Kuehn et al., 2010). Differentiation into >98% mast cells was confirmed through toluidine blue staining (1%, pH 1). RBL-2H3, RAW 264.7, and Jurkat cells were obtained from the American Type Culture Collection (Manassas, Va.). […] Optical density was determined using a Synergy HT microplate reader (BioTek Instruments, Inc, Winooski, Vt.). […]

## CCCCCCC/C=C/C=C/C(=O)NCC(C)C [A15, (2E,4E)-N-Isobutyldodeca-2,4-dienamide]
RBL-2H3 cells [1]; RBL-2H3 cells activated by IgE anti-DNP and DNP-BSA
  degranulation: inhibited degranulation
RBL-2H3 cells [1]; Rattus norvegicus, A23187-stimulated RBL-2H3 cells, 100 μM, 1 hr, read-out: inhibition of release of β-hex
  inhibition at 100 µM: 48.4%
RBL-2H3 cells [2]
  production of TNF-α: significant, dose dependent inhibition
